Laboratory results as given in ChEMBL document CHEMBL4823305, “Design, synthesis and antibacterial evaluation of novel 3-O-substituted 15-membered azalides possessing 1,2,3-triazole side chains” (2021).
≈ marks a conversion by molar mass, not a printed value. Calls of active or inactive are those of the source. No cut-off for these calls is given here.

How the values were obtained:
Staphylococcus aureus [1] = assay: Antibacterial activity against erythromycin-susceptible Staphylococcus aureus ATCC25923 by broth microdilution method; assay type: functional
Enterococcus faecalis = assay: Antibacterial activity against vancomycin-susceptible Enterococcus faecalis ATCC29212 by broth microdilution method; assay type: functional
Bacillus subtilis = assay: Antibacterial activity against penicillin-susceptible Bacillus subtilis ATCC9372 by broth microdilution method; assay type: functional
Enterococcus faecium = assay: Antibacterial activity against clinical isolate erythromycin-resistant Enterococcus faecium by broth microdilution method; assay type: functional
Staphylococcus aureus [2] = assay: Antibacterial activity against methicillin-resistant Staphylococcus aureus ATCC43300 by broth microdilution method; assay type: functional
Staphylococcus aureus [3] = assay: Antibacterial activity against penicillin-resistant Staphylococcus aureus by broth microdilution method; assay type: functional
Klebsiella pneumoniae = assay: Antibacterial activity against Klebsiella pneumoniae ATCC10031 by broth microdilution method; assay type: functional
Staphylococcus aureus [4] = assay: Bactericidal activity against methicillin-resistant Staphylococcus aureus ATCC43300; assay type: functional
[5] = Ratio of MBC for bactericidal activity against methicillin-resistant Staphylococcus aureus ATCC43300 to MIC for antibacterial activity against methicillin-resistant Staphylococcus aureus ATCC43300 by broth microdilution method; assay type: functional
Staphylococcus aureus [6] = assay: Antibacterial activity against methicillin-resistant Staphylococcus aureus ATCC43300 at 0.5 times of MIC measured up to 24 hrs by broth microdilution method; assay type: functional, organism-based; settings: time hrs <=24
Staphylococcus aureus [7] = assay: Antibacterial activity against methicillin-resistant Staphylococcus aureus ATCC43300 at 1 times of MIC measured up to 9 hrs by broth microdilution method; assay type: functional, organism-based; settings: time hrs <=9
Staphylococcus aureus [8] = assay: Bactericidal activity against methicillin-resistant Staphylococcus aureus ATCC43300 at 2 times of MIC measured up to 24 hrs; assay type: functional, organism-based; settings: time hrs <=24
Staphylococcus aureus [9] = assay: Bactericidal activity against methicillin-resistant Staphylococcus aureus ATCC43300 at 4 times of MIC measured up to 24 hrs; assay type: functional, organism-based; settings: time hrs <=24

Compound | MIC (Staphylococcus aureus [1]) [µg/mL] | MIC (Enterococcus faecalis) [µg/mL] | MIC (Bacillus subtilis) [µg/mL] | MIC (Enterococcus faecium) [µg/mL] | MIC (Staphylococcus aureus [2]) [µg/mL] | MIC (Staphylococcus aureus [3]) [µg/mL] | MIC (Klebsiella pneumoniae) [µg/mL] | MBC (Staphylococcus aureus [4]) [µg/mL] | Ratio [5] | inhibition (Staphylococcus aureus [6]) | inhibition (Staphylococcus aureus [7]) | inhibition (Staphylococcus aureus [8]) | inhibition (Staphylococcus aureus [9])
CCCCCc1ccc(-c2cn(CC(=O)NNC(=O)O[C@H]3[C@H](C)[C@@H](O[C@@H]4O[C@H](C)C[C@H](N(C)C)[C@H]4O)[C@](C)(O)C[C@@H](C)CN(C)[C@H](C)[C@H]4OC(=O)O[C@]4(C)[C@@H](CC)OC(=O)[C@@H]3C)nn2)cc1 | 8 (≈ 8.6 µM) | 4 (≈ 4.3 µM) | 8 (≈ 8.6 µM) | 8 (≈ 8.6 µM) | 16 (≈ 17.2 µM) | 16 (≈ 17.2 µM) | 32 (≈ 34.4 µM) | 126 (≈ 135 µM) | 8 | inactive | Active | Active | Active
CC[C@H]1OC(=O)[C@H](C)[C@@H](OC(=O)NNC(=O)Cn2cc(-c3ccc(C(C)(C)C)cc3)nn2)[C@H](C)[C@@H](O[C@@H]2O[C@H](C)C[C@H](N(C)C)[C@H]2O)[C@](C)(O)C[C@@H](C)CN(C)[C@H](C)[C@H]2OC(=O)O[C@@]21C | 16 (≈ 17.5 µM) | 4 (≈ 4.37 µM) | 16 (≈ 17.5 µM) | 16 (≈ 17.5 µM) | 32 (≈ 34.9 µM) | 32 (≈ 34.9 µM) | 16 (≈ 17.5 µM) | > 256 | >8 | – | – | – | –
